Experimental data: patent publication US9809625B2, “Immunomodulators” (BRISTOL-MYERS SQUIBB COMPANY, priority 2015, dated 2017)
Bridge positions count the residues as written; N and C are the ends. Square brackets hold non-standard residues; d marks the D form. Peptide text beside a SMILES is read from it. * marks the point of attachment. ξ: configuration not given here. Piperazinyl(4-Ph) = c1ccc(N2CCN(*)CC2)cc1; Hyp = O=C(O)[C@@H]1C[C@@H](O)CN1; ξW = NC(Cc1c[nH]c2ccccc12)C(=O)O; NMeNle = CCCC[C@H](NC)C(=O)O; X5 = Clc1ccc(C2CCN(*)CC2)cc1; X3 = CN(CCN*)C(=O)OC(C)(C)C; X7 = CC(C)(C)OC(=O)NCCCCCN*; NMeA = CN[C@@H](C)C(=O)O; Dap = NC[C@H](N)C(=O)O; X13 = CS(=O)(=O)CCN*; X12 = OCC1CCN(*)CC1; X6 = O=C1CN(*)CCN1; OtBu = CC(C)(C)O*; βAla = NCCC(=O)O; Sar = CNCC(=O)O

Target: T1, PD-1-Ig binding to PD-L1-TVMV-His (PD-L1-His) (Homo sapiens, UniProt Q9NZQ7)
T1 construct: hPDL1(19-239)-TVMV-His; TVMV protease cleavage site (C); made in house; host or cells: HEK293T
T1 sequence (Q9NZQ7 with tags, fused parts or gaps): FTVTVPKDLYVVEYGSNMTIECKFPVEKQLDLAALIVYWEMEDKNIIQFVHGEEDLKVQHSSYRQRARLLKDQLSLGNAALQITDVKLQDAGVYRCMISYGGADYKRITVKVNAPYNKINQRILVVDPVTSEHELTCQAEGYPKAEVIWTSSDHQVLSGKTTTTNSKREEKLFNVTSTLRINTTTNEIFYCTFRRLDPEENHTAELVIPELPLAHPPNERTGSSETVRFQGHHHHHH
Assay: PD-1/PD-L1 Homogenous Time-Resolved Fluorescence (HTRF) binding assay
Details: PD-1-Ig (20 nM)/PD-L1-His (10 nM), range classes

| SMILES | IC50 [µM] |
| --- | --- |
| CCCC[C@H]1C(=O)N(C)[C@@H](CCCC)C(=O)N[C@@H](CC(C)C)C(=O)N[C@H](C(=O)NCC(=O)N2CCC(CO)CC2)CSCC(=O)N[C@@H](Cc2ccc(O)cc2)C(=O)N(C)[C@@H](C)C(=O)N[C@@H](CC(N)=O)C(=O)N2CCC[C@H]2C(=O)N[C@@H](CN)C(=O)N[C@@H](CC(C)C)C(=O)N2C[C@H](O)C[C@H]2C(=O)N[C@@H](Cc2c[nH]c3ccccc23)C(=O)NCC(=O)NC(Cc2c[nH]c3ccccc23)C(=O)N1C (stereo partly shown) [Example 13111] ({CH2CO}-Y[NMeA]NP[Dap]L[Hyp]WG[ξW][NMeNle][NMeNle]LCG-X12; thioether N-14) | 0.01 to 0.06 |
| CCCC[C@H]1C(=O)N(C)[C@@H](CCCC)C(=O)N[C@@H](CC(C)C)C(=O)N[C@H](C(=O)NCC(=O)N2CCNC(=O)C2)CSCC(=O)N[C@@H](Cc2ccc(O)cc2)C(=O)N(C)[C@@H](C)C(=O)N[C@@H](CC(N)=O)C(=O)N2CCC[C@H]2C(=O)N[C@@H](CN)C(=O)N[C@@H](CC(C)C)C(=O)N2C[C@H](O)C[C@H]2C(=O)N[C@@H](Cc2c[nH]c3ccccc23)C(=O)NCC(=O)NC(Cc2c[nH]c3ccccc23)C(=O)N1C (stereo partly shown) [Example 13114] ({CH2CO}-Y[NMeA]NP[Dap]L[Hyp]WG[ξW][NMeNle][NMeNle]LCG-X6; thioether N-14) | 0.004 to 0.0099 |
| CCCC[C@H]1C(=O)N(C)[C@@H](CCCC)C(=O)N[C@@H](CC(C)C)C(=O)N[C@H](C(=O)NCC(=O)N2CCC(c3ccc(Cl)cc3)CC2)CSCC(=O)N[C@@H](Cc2ccc(O)cc2)C(=O)N(C)[C@@H](C)C(=O)N[C@@H](CC(N)=O)C(=O)N2CCC[C@H]2C(=O)N[C@@H](CN)C(=O)N[C@@H](CC(C)C)C(=O)N2C[C@H](O)C[C@H]2C(=O)N[C@@H](Cc2c[nH]c3ccccc23)C(=O)NCC(=O)NC(Cc2c[nH]c3ccccc23)C(=O)N1C (stereo partly shown) [Example 13115] ({CH2CO}-Y[NMeA]NP[Dap]L[Hyp]WG[ξW][NMeNle][NMeNle]LCG-X5; thioether N-14) | 0.01 to 0.06 |
| CCCC[C@H]1C(=O)N(C)[C@@H](CCCC)C(=O)N[C@@H](CC(C)C)C(=O)N[C@H](C(=O)NCC(=O)N2CCN(c3ccccc3)CC2)CSCC(=O)N[C@@H](Cc2ccc(O)cc2)C(=O)N(C)[C@@H](C)C(=O)N[C@@H](CC(N)=O)C(=O)N2CCC[C@H]2C(=O)N[C@@H](CN)C(=O)N[C@@H](CC(C)C)C(=O)N2C[C@H](O)C[C@H]2C(=O)N[C@@H](Cc2c[nH]c3ccccc23)C(=O)NCC(=O)NC(Cc2c[nH]c3ccccc23)C(=O)N1C (stereo partly shown) [Example 13117] ({CH2CO}-Y[NMeA]NP[Dap]L[Hyp]WG[ξW][NMeNle][NMeNle]LCG-{Piperazinyl(4-Ph)}; thioether N-14) | 0.004 to 0.0099 |

The next lines start with the values.

| IC50 [µM] | SMILES |
| --- | --- |
| 0.01 to 0.06 | CCCC[C@H]1C(=O)N(C)[C@@H](CCCC)C(=O)N[C@@H](CC(C)C)C(=O)N[C@H](C(=O)NCC(=O)NCCC(=O)OC(C)(C)C)CSCC(=O)N[C@@H](Cc2ccc(O)cc2)C(=O)N(C)[C@@H](C)C(=O)N[C@@H](CC(N)=O)C(=O)N2CCC[C@H]2C(=O)N[C@@H](CN)C(=O)N[C@@H](CC(C)C)C(=O)N2C[C@H](O)C[C@H]2C(=O)N[C@@H](Cc2c[nH]c3ccccc23)C(=O)NCC(=O)NC(Cc2c[nH]c3ccccc23)C(=O)N1C (stereo partly shown) [Example 13109] ({CH2CO}-Y[NMeA]NP[Dap]L[Hyp]WG[ξW][NMeNle][NMeNle]LCG[βAla]-OtBu; thioether N-14) |
| 0.004 to 0.0099 | CCCC[C@H]1C(=O)N(C)[C@@H](CCCC)C(=O)N[C@@H](CC(C)C)C(=O)N[C@H](C(=O)NCC(=O)NCCC(N)=O)CSCC(=O)N[C@@H](Cc2ccc(O)cc2)C(=O)N(C)[C@@H](C)C(=O)N[C@@H](CC(N)=O)C(=O)N2CCC[C@H]2C(=O)N[C@@H](CN)C(=O)N[C@@H](CC(C)C)C(=O)N2C[C@H](O)C[C@H]2C(=O)N[C@@H](Cc2c[nH]c3ccccc23)C(=O)NCC(=O)NC(Cc2c[nH]c3ccccc23)C(=O)N1C (stereo partly shown) [Example 13110] ({CH2CO}-Y[NMeA]NP[Dap]L[Hyp]WG[ξW][NMeNle][NMeNle]LCG[βAla]-NH2; thioether N-14) |
| 0.01 to 0.06 | CCCC[C@H]1C(=O)N(C)[C@@H](CCCC)C(=O)N[C@@H](CC(C)C)C(=O)N[C@H](C(=O)NCC(=O)NCCCCCNC(=O)OC(C)(C)C)CSCC(=O)N[C@@H](Cc2ccc(O)cc2)C(=O)N(C)[C@@H](C)C(=O)N[C@@H](CC(N)=O)C(=O)N2CCC[C@H]2C(=O)N[C@@H](CN)C(=O)N[C@@H](CC(C)C)C(=O)N2C[C@H](O)C[C@H]2C(=O)N[C@@H](Cc2c[nH]c3ccccc23)C(=O)NCC(=O)NC(Cc2c[nH]c3ccccc23)C(=O)N1C (stereo partly shown) [Example 13112] ({CH2CO}-Y[NMeA]NP[Dap]L[Hyp]WG[ξW][NMeNle][NMeNle]LCG-X7; thioether N-14) |
| 0.01 to 0.06 | CCCC[C@H]1C(=O)N(C)[C@@H](CCCC)C(=O)N[C@@H](CC(C)C)C(=O)N[C@H](C(=O)NCC(=O)NCCN(C)C(=O)OC(C)(C)C)CSCC(=O)N[C@@H](Cc2ccc(O)cc2)C(=O)N(C)[C@@H](C)C(=O)N[C@@H](CC(N)=O)C(=O)N2CCC[C@H]2C(=O)N[C@@H](CN)C(=O)N[C@@H](CC(C)C)C(=O)N2C[C@H](O)C[C@H]2C(=O)N[C@@H](Cc2c[nH]c3ccccc23)C(=O)NCC(=O)NC(Cc2c[nH]c3ccccc23)C(=O)N1C (stereo partly shown) [Example 13113] ({CH2CO}-Y[NMeA]NP[Dap]L[Hyp]WG[ξW][NMeNle][NMeNle]LCG-X3; thioether N-14) |
| 0.01 to 0.06 | CCCC[C@H]1C(=O)N(C)[C@@H](CCCC)C(=O)N[C@@H](CC(C)C)C(=O)N[C@H](C(=O)NCC(=O)NCCS(C)(=O)=O)CSCC(=O)N[C@@H](Cc2ccc(O)cc2)C(=O)N(C)[C@@H](C)C(=O)N[C@@H](CC(N)=O)C(=O)N2CCC[C@H]2C(=O)N[C@@H](CN)C(=O)N[C@@H](CC(C)C)C(=O)N2C[C@H](O)C[C@H]2C(=O)N[C@@H](Cc2c[nH]c3ccccc23)C(=O)NCC(=O)NC(Cc2c[nH]c3ccccc23)C(=O)N1C (stereo partly shown) [Example 13116] ({CH2CO}-Y[NMeA]NP[Dap]L[Hyp]WG[ξW][NMeNle][NMeNle]LCG-X13; thioether N-14) |
| 0.01 to 0.06 | CCCC[C@H]1C(=O)N(C)[C@@H](CCCC)C(=O)N[C@@H](CC(C)C)C(=O)N[C@H](C(=O)N(C)CC(N)=O)CSCC(=O)N[C@@H](Cc2ccc(O)cc2)C(=O)N(C)[C@@H](C)C(=O)N[C@@H](CC(N)=O)C(=O)N2CCC[C@H]2C(=O)N[C@@H](CN)C(=O)N[C@@H](CC(C)C)C(=O)N2C[C@H](O)C[C@H]2C(=O)N[C@@H](Cc2c[nH]c3ccccc23)C(=O)NCC(=O)N[C@@H](Cc2c[nH]c3ccccc23)C(=O)N1C [Example 13119] ({CH2CO}-Y[NMeA]NP[Dap]L[Hyp]WGW[NMeNle][NMeNle]LC[Sar]-NH2; thioether N-14) |
